From US20150118267A1, “METHOD OF USING THEAFLAVIN” (priority 2013, published 2015)

What was measured:
Assay type in all cases: in vivo, mice
[1] = system: Delayed-type hypersensitivity (DTH) induced by sheep red blood cell (SRBC); experiment: Mouse footpad swelling assay (DTH); conditions: for Footpad swelling: 24 hours after second SRBC injection, n=10
Procedure: For each study, forty mice were divided into 4 groups with 10 mice per group (n=10). These four groups were control, theaflavin (low), theaflavin (mid), and theaflavin (high). The latter three were theaflavin-treated groups in which theaflavin (capsule, Xiayie™, prepared according to the method described in U.S. Pat. […] […] […] […] Statistical differences between groups were calculated using SPSS 11.0 with student t test plus Dunnett method.
Delayed-type hypersensitivity (DTH) is an immune reaction induced by antigen. In the mice footpads at which DTH was elicited, transient swellings which usually peaked at 24-48 hours after the antigen challenge was observed. This assay of measuring footpad swelling of mice caused by a DTH reaction was used to test effects of theaflavin is on immune responses.
The Sheep red blood cell (SRBC) was taken from sheep and washed triple with physiological saline, centrifugated at 1500 g for 10 min, and adjusted to a final concentration of 2%. Each mouse was given a single injection of 0.2 ml of prepared 2% SRBC. On day 4 after the SRBC injection, each mouse was given an […] injection (the second injection) of 0.02 ml of prepared 20% SRBC. Mouse footpad thicknesses were measured before and 24 hours after the second injection. Mouse footpad swelling values were calculated from the difference between these two measurements.

[2] = system: Sheep red blood cell (SRBC); experiment: Mouse plasma hemolysin assay; conditions: for Antibody integrand: plasma on day 5 after SRBC injection, n=10
Procedure: (§1) For each study, forty mice were divided into 4 groups with 10 mice per group (n=10). These four groups were control, theaflavin (low), theaflavin (mid), and theaflavin (high). The latter three were theaflavin-treated groups in which theaflavin (capsule, Xiayie™, prepared according to the method described in U.S. Pat. No. 8,282,970) was fed to mice at a dose of 83 mg, 250 mg, and 500 mg per kg body weight per day for 30 days for the low, mid, and high group, respectively. Water was fed for the control group. For the organ weight study, animals were sacrificed after the 30-day study, followed by collecting spleens and thymus for weight measurement. For the other studies, animals were harvested for further analyses as described below. Statistical differences between groups were calculated using SPSS 11.0 with student t test plus Dunnett method.
Each mouse was given a single injection of 0.2 ml of 2% SRBC from the above-described preparation. On day 5 after the SRBC injection, the plasma was collected by centrifuging the mouse eye blood at 2000 r/min for 10 min, then was stored into a sterile tube. With a micro hemagglutinin-assay plate, the plasma was diluted to a series of concentrations, then […] of 0.5% SRBC suspension was added. The contents were is mixed by vortexing and incubated for 3 h in a 37° C., 5% CO2 incubator, after which the hemagglutination was observed under microscope. The data were presented as antibody integrand.

[3] = Mouse body weight after 30-day theaflavin feeding; conditions: for BW change: mice, n=10, 30 days
Procedure: (§2) Female mice (Kuengming, China) weighing 18-22 g were used. The animals were housed in individual stainless steel cages in an air-conditioned room under a 12:12 hour light:dark cycle. A commercial pellet diet and water were provided throughout the experiment. All procedures were conducted in accordance with the P.R. China legislation under No. 8910M047 on the use and care of laboratory animals.
as §1, with “No. 8,282,970) was fed to mice at a dose of 83 mg, 250 mg, and 500 mg per kg body weight per day for 30 days for the low, mid, and high group, respectively.” left out

[4] = Weights of immune-related organs (spleen, thymus) after 30-day feeding; conditions: for Spleen Weight change / Thymus Weight change: mice, n=10, 30 days
Procedure: as §2
as §1, with “No. 8,282,970) was fed to mice at a dose of 83 mg, 250 mg, and 500 mg per kg body weight per day for 30 days for the low, mid, and high group, respectively.” left out

[5] = theaflavin treatment for 30 days, compared to control

O=c1c(O)cc([C@H]2Oc3cc(O)cc(O)c3C[C@H]2O)cc2c([C@H]3Oc4cc(O)cc(O)c4C[C@H]3O)cc(O)c(O)c12 [Theaflavin, theaflavin]
Footpad swelling ([1]; 167 mg/kg.BW (Low)): 1.46 ± 0.39 mm
Footpad swelling ([1]; 333 mg/kg.BW (Mid)): 1.24 ± 0.24 mm
Footpad swelling ([1]; 500 mg/kg.BW (High)): 1.53 ± 0.49 mm
mouse footpad swelling compared to control ([1]; theaflavin low and high groups): statistically significant mouse footpad swelling
Antibody integrand ([2]; 167 mg/kg.BW (Low)): 143.80 ± 35.23
Antibody integrand ([2]; 333 mg/kg.BW (Mid)): 123.20 ± 20.37
Antibody integrand ([2]; 500 mg/kg.BW (High)): 146.40 ± 26.46
mouse plasma hemolysin assay result compared to control ([2]; theaflavin low and high groups): statistically significant results
BW change ([3]; study I, 167 mg/kg.BW (Low)): 12.70 ± 0.82 g
BW change ([3]; study I, 333 mg/kg.BW (Mid)): 12.80 ± 0.79 g
BW change ([3]; study I, 500 mg/kg.BW (High)): 12.50 ± 0.71 g
BW change ([3]; study II, 167 mg/kg.BW (Low)): 12.00 ± 0.67 g
BW change ([3]; study II, 333 mg/kg.BW (Mid)): 11.80 ± 0.63 g
BW change ([3]; study II, 500 mg/kg.BW (High)): 12.70 ± 0.92 g
BW change ([3]; study III, 167 mg/kg.BW (Low)): 11.90 ± 0.88 g
BW change ([3]; study III, 333 mg/kg.BW (Mid)): 12.80 ± 0.63 g
BW change ([3]; study III, 500 mg/kg.BW (High)): 11.90 ± 0.57 g
BW change ([3]; study IV, 167 mg/kg.BW (Low)): 13.00 ± 0.94 g
BW change ([3]; study IV, 333 mg/kg.BW (Mid)): 11.90 ± 0.77 g
BW change ([3]; study IV, 500 mg/kg.BW (High)): 12.00 ± 0.47 g
effect on mice body weights [3, 5]: no effect
Spleen Weight change ([4]; 167 mg/kg.BW (Low)): 0.47 ± 0.13%
Thymus Weight change ([4]; 167 mg/kg.BW (Low)): 0.42 ± 0.07%
Spleen Weight change ([4]; 333 mg/kg.BW (Mid)): 0.46 ± 0.10%
Thymus Weight change ([4]; 333 mg/kg.BW (Mid)): 0.43 ± 0.12%
Spleen Weight change ([4]; 500 mg/kg.BW (High)): 0.45 ± 0.07%
Thymus Weight change ([4]; 500 mg/kg.BW (High)): 0.42 ± 0.11%
effect on weights of immune system related organs, i.e., spleen and thymus [4, 5]: no effect
